From patent US8901118B2, “Compounds and methods for kinase modulation, and indications therefor” (Plexxikon Inc., priority 2010, dated 2014) come the findings set out here.

For one assay, the target named is c-Kit kinase (Homo sapiens, UniProt P10721). The assay can be described thus: c-Kit kinase biochemical activity assay (AlphaScreen, biotin-(E4Y)10 phosphorylation). To be noted: 100 μM ATP; read-out: Biochemical Inhibition IC50 Kit. In short, it runs like this: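 Phosphorylation of 30 nM biotin-(E4Y)10 by c-Kit (0.75 ng per reaction) with 100 µM ATP in HEPES pH 7.5 buffer with Mg2+/Mn2+, 5% DMSO, 1 h at room temperature; 8-point 1:2 compound dilutions. AlphaScreen detection with streptavidin donor and PY20 acceptor beads after EDTA stop. IC50 from signal versus concentration.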
Chain of c-Kit kinase (P10721 26-976): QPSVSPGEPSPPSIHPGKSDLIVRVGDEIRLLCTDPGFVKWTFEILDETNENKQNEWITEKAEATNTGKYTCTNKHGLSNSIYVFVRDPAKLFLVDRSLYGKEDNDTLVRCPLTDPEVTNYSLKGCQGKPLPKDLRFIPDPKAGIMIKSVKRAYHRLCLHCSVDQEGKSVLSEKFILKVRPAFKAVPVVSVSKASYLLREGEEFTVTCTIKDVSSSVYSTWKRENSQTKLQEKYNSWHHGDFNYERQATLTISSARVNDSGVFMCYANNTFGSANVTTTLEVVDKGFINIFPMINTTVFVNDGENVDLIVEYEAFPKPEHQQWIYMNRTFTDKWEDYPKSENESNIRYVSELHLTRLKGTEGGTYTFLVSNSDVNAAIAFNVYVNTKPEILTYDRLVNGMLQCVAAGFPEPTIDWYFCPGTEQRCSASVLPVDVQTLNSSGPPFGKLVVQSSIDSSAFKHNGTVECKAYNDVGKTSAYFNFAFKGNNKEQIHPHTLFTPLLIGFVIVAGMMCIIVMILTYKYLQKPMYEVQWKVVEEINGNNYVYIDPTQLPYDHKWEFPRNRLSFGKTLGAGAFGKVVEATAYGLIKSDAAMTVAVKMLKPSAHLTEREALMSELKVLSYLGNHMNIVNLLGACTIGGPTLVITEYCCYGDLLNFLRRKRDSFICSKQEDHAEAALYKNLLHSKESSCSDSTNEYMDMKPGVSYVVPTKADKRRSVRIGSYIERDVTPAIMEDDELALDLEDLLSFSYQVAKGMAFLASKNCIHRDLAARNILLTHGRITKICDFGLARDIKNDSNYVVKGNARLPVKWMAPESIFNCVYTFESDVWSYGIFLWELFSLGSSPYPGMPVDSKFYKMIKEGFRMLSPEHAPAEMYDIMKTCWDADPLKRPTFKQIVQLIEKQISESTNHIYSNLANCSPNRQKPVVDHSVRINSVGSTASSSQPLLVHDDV
A general note: In Alpha technology, singlet oxygen from a donor bead excites a nearby acceptor bead.

Another assay concerns the target T1, BCR-NTRK1 BaF3 cells (Homo sapiens, UniProt P04629).
T1 construct: fused on or other part: P11274 (Breakpoint cluster region protein)
The assay is described as follows: BaF3 BCR-NTRK1 cell proliferation assay (ATPlite). To be noted: read-out: Inhibition of Cell Proliferation IC50, BCR/BaF3 TrkA. The format is cell-based. The procedure, abridged: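 Growth inhibition over 3 days at 37 °C; IC50 from ATPlite luminescence, 8 concentrations (1:3 steps, max 10 μM). BaF3 fusion lines were tested without IL-3.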

T1 sequence (P04629 510-781): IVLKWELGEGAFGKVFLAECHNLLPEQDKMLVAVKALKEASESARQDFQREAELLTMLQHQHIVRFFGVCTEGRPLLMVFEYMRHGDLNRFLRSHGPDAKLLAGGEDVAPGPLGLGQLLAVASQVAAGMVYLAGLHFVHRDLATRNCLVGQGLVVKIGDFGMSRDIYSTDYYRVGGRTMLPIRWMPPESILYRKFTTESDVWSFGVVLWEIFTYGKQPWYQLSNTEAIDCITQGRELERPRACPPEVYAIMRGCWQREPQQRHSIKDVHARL

On to `Fc1nc(Nc2ccc(C3CC3)nc2)ccc1Cc1c[nH]c2ncnc(NCC(F)(F)F)c12` [Compound P-4130, 5-[[6-[(6-cyclopropyl-3-pyridyl)amino]-2-fluoro-3-pyridyl]methyl]-N-(2,2,2-trifluoroethyl)-7H-pyrrolo[2,3-d]pyrimidin-4-amine], for which the IC50 on c-Kit kinase is below 1 µM; on BCR-NTRK1 BaF3 cells, below 0.1 µM.

For the compound `CCOc1ccc(Nc2ccc(C(=O)c3c[nH]c4ncnc(OC)c34)c(F)n2)cn1` [Compound P-4024, [6-(6-Ethoxy-pyridin-3-ylamino)-2-fluoro-pyridin-3-yl]-(4-methoxy-7H-pyrrolo[2,3-d]pyrimidin-5-yl)-methanone], the IC50 on c-Kit kinase is below 1 µM; at BCR-NTRK1 BaF3 cells it was below 0.1 µM.

Regarding `CCc1ccc(Nc2ccc(C(=O)c3c[nH]c4ncnc(C5CC5)c34)c(F)n2)cn1` [Compound P-4029, (4-Cyclopropyl-7H-pyrrolo[2,3-d]pyrimidin-5-yl)-[6-(6-ethyl-pyridin-3-ylamino)-2-fluoro-pyridin-3-yl]-methanone], the IC50 is below 0.1 µM on c-Kit kinase and below 0.01 µM on BCR-NTRK1 BaF3 cells.

In the case of `CCCOc1ccc(Nc2ncc(Cc3c[nH]c4ncc(C)cc34)cn2)cc1` [Compound P-3024, [5-(5-Methyl-1H-pyrrolo[2,3-b]pyridin-3-ylmethyl)-pyrimidin-2-yl]-(4-propoxy-phenyl)-amine], the IC50 was below 0.01 µM at c-Kit kinase and below 1 µM at BCR-NTRK1 BaF3 cells.

Regarding `COc1ccc(Nc2ccc(Cc3c[nH]c4ncnc(OC)c34)c(F)n2)cn1` [Compound P-4001, [6-Fluoro-5-(4-methoxy-7H-pyrrolo[2,3-d]pyrimidin-5-ylmethyl)-pyridin-2-yl]-(6-methoxy-pyridin-3-yl)-amine], the IC50 on c-Kit kinase is below 1 µM; on BCR-NTRK1 BaF3 cells it was below 0.1 µM.

For the compound `COc1ccc(Nc2ccc(Cc3c[nH]c4ncnc(C)c34)c(F)n2)cn1` [Compound P-4002, [6-Fluoro-5-(4-methyl-7H-pyrrolo[2,3-d]pyrimidin-5-ylmethyl)-pyridin-2-yl]-(6-methoxy-pyridin-3-yl)-amine], the IC50 on c-Kit kinase and on BCR-NTRK1 BaF3 cells was below 1 µM each time.

Turning to `Cc1cnc2[nH]cc(Cc3ccc(Nc4ccc(C)nc4)nc3F)c2c1` [Compound P-3041, [6-Fluoro-5-(5-methyl-1H-pyrrolo[2,3-b]pyridin-3-ylmethyl)-pyridin-2-yl]-(6-methyl-pyridin-3-yl)-amine], the IC50 on c-Kit kinase and at BCR-NTRK1 BaF3 cells was below 1 µM throughout.
